From patent publication US20050048001A1, “Pharmaceutical formulations of salmeterol” (priority 1999, published 2005)

Experiment: Solubility of forms of salmeterol in ethanol/HFA mixtures
Assay type: physicochemical
Settings: mixtures of ethanol/HFA134a and ethanol/HFA227; relative to racemic salmeterol xinafoate
Excerpt: FIG. 6: Chart to show the solubility of various forms of salmeterol in a number of different solvents.

Row | SMILES | solubility
1 | O=C(O)c1ccc2ccccc2c1O.OCc1cc(C(O)CNCCCCCCOCCCCc2ccccc2)ccc1O (centres unmarked) [R-salmeterol xinafoate] | significantly more soluble
2 | OCc1cc(C(O)CNCCCCCCOCCCCc2ccccc2)ccc1O (stereo not drawn) [salmeterol base, 4-hydroxy-α^1-[[[6-(4-phenylbutoxy)hexyl]amino]methyl]-1,3-benzenedimethanol] | substantially more soluble
